Activity calls are given as the source filed them.
Assays:
[1] = tested on: BJ; test: growth inhibition of engineered Ras-driven BJ cells – cell-based, alamar blue fluorescence, cherrypicked samples, dose response (AID 2631); assay type: functional; conditions: Homo sapiens;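 also: confirmatory dose-response assay in RAS-dependent BJ fibroblasts engineered with TERT, LT and ST, with cytotoxicity read by fluorescence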
[2] = tested on: INS1; test: INS-1E survival protection against cytokine death – cell-based, luminescence, retest, dose response (AID 449756); assay type: functional; conditions: Rattus norvegicus;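 also: cell death triggered by IL-1 beta plus TNF-alpha plus IFN-gamma mixture; protective hits raise ATP signal compared with cytokine alone wells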
[3] = molecular target: E3 ubiquitin-protein ligase Mdm2 (Homo sapiens, UniProt Q00987); test: MDM2-luc reporter signal enhancers, multi-concentration potency testing, MDM2 ubiquitin-protein ligase inhibitor program, whole-cell format, luminescence detection, 384-well microplate (AID 1394); assay type: functional;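 also: MDM2 E3 inhibitors raise luminescence so EC50 is for signal enhancement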
[4] = NIH-3T3 fibroblast cytotoxicity, dose response, cytotoxicity control, cell-based, fluorescence, Alamar Blue, secondary assay (AID 2327); assay type: functional;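 also: NIH-3T3 mouse fibroblasts cultured with fluconazole at 8 µg/mL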
[5] = molecular target: Paired box protein Pax-8 (Homo sapiens, UniProt Q06710); test: PAX8 transcriptional activity inhibition in RMG-I – RMG-I cells, luciferase, cherry-pick, dose response (AID 687027); assay type: functional, cell-based;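 also: luciferase reporter driven by Pax8 target thyroperoxidase promoter measured by SteadyGlo luminescence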
[6] = general cell-killing toxicity readout – plate reader, dry powder samples, cytotoxicity control for PAX8 inhibitor project, dose response (AID 743021); assay type: functional, cell-based
[7] = molecular target: NAD-dependent protein deacylase sirtuin-5, mitochondrial (Homo sapiens, UniProt Q9NXA8); test: sirtuin-5 deacylation blockers, concentration series – biochemical, fluorescence imaging, cherry-pick, set 5, dose response (AID 720591);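 also: desuccinylation of succinyl peptide AMC substrate read as fluorescence after trypsin release; potency of inhibitors that lower fluorescence and may act on trypsin instead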
[8] = PAX5 cellular inhibition readout – cell-based, plate reader, dry powder samples, selectivity assay for PAX8 inhibitor project, dose response (AID 743047); assay type: functional;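 also: HEK293 cells carrying a Pax5 driven CD19 promoter luciferase reporter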
[9] = COV362 cell viability loss – plate reader, dry powder, SA12, cytotoxicity control for PAX8 inhibitor project, dose response (AID 743144); assay type: functional, cell-based
[10] = PAX8-dependent cell viability loss – plate reader, dry powder, dose response (AID 743049); assay type: functional, cell-based
[11] = OVCAR4 cell viability loss – plate reader, dry powder, SA11, cytotoxicity control for PAX8 inhibitor project, dose response (AID 743150); assay type: functional, cell-based; conditions: OVCAR-4
[12] = OVCAR8 cell viability loss – plate reader, dry powder samples, PAX8 project, dose response (AID 743197); assay type: functional, cell-based; conditions: OVCAR-8
[13] = OV-90 cell viability loss – plate reader, dry powder, SA8, PAX8 inhibitor project, dose response (AID 743149); assay type: functional, cell-based
[14] = OVCAR-3 cell viability loss – plate reader, dry powder samples, PAX8 inhibitor project, dose response (AID 743044); assay type: functional, cell-based
[15] = COV434 cell viability loss – plate reader, dry powder, SA7, cytotoxicity control for PAX8 inhibitor project, dose response (AID 743145); assay type: functional, cell-based
[16] = IGROV1 cell killing – plate reader, dry powder samples, PAX8 inhibitor project, dose response (AID 743043); assay type: functional, cell-based; conditions: IGROV-1
[17] = blockade of melanocortin 4 receptor signaling – cell-based, plate reader, cherry pick, counter-screen for LGR2 antagonist project, dose response (AID 743444); assay type: functional;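 also: transfected HEK 293 cells stimulated with alpha-MSH peptide; potency of inhibitors of the alpha-MSH evoked signal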
[18] = toxicity toward HepG2 liver cells – cell-based, plate reader, cherry-pick, antagonist series, cytotoxicity control, dose response (AID 743416); assay type: functional
[19] = toxicity toward immortalized ovarian surface epithelium – cell-based, plate reader, dry powder samples, cytotoxicity control for PAX8 inhibitor project, dose response (AID 743045); assay type: functional
[20] = growth inhibition of yeast DHODH-expressing 3D7 parasites – SYBR Green, dry powder samples, dose response (AID 1159570); assay type: functional, cell-based;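 also: parasite growth measured after 72 hours of compound exposure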
[21] = A549 cell cytotoxicity, dose response, cytotoxicity control, plate reader, cherry-pick, antagonist series (AID 743412); assay type: functional, cell-based
[22] = growth inhibition of PfATP4-mutant resistant parasites – NITD609-resistant line, SYBR Green, dry powder, dose response (AID 1159571); assay type: functional, cell-based;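 also: parasites synchronized at ring stage by sorbitol before testing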
[23] = Dd2 parasite growth inhibition in erythrocytes – SYBR Green, dry powder samples, set 9, dose response (AID 1159568); assay type: functional, cell-based
[24] = Dd2 malaria parasite growth inhibition potency – SYBR Green, dry powder samples, dose response (AID 1159566); assay type: functional, cell-based;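 also: potency for growth inhibition with lower SYBR green DNA signal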
[25] = P. falciparum Dd2 growth inhibitors, dose response, SYBR Green, cherry-picked samples (AID 1159567); assay type: functional, cell-based
[26] = blockers of bursicon-stimulated LGR2 cAMP reporter – cell-based, HEK293, CRE-luciferase reporter, cherry pick, set 2, dose response (AID 743343); assay type: functional;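 also: transfected cells were stimulated with diluted bursicon conditioned medium after compound addition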
[27] = viability loss in HEK293 cells – cell-based, plate reader, cherry-picked samples, cytotoxicity control, dose response (AID 743446); assay type: functional
[28] = A2780 cell killing – plate reader, dry powder samples, cytotoxicity control, dose response (AID 743046); assay type: functional, cell-based
[29] = toxicity to human HepG2 hepatoma cells – cell-based, plate reader, dry powder samples, cytotoxicity control, dose response (AID 1159569); assay type: functional;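 also: inhibitor potency with signal falling toward the positive control level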
[30] = molecular target: Vasopressin V2 receptor (Homo sapiens, UniProt P30518); test: Late-stage results from the probe development effort to identify antagonists of arginine vasopressin receptor 1a (AVPR1a): fluorescence-based cell-based dose response AVPR2 inhibition counterscreen assay.; assay type: functional
[31] = Late-stage results from the probe development effort to identify antagonists of arginine vasopressin receptor 1a (AVPR1a): fluorescence-based cell-based dose response OXTR inhibition counterscreen assay.; assay type: functional
[32] = molecular target: Vasopressin V1b receptor (Homo sapiens, UniProt P47901); test: Late-stage results from the probe development effort to identify antagonists of arginine vasopressin receptor 1a (AVPR1a): fluorescence-based cell-based dose response AVPR1b inhibition counterscreen assay.; assay type: functional
[33] = Late-stage results from the probe development effort to identify antagonists of arginine vasopressin receptor 1a (AVPR1a): fluorescence-based cell-based dose response AVPR1a inhibition assay.; assay type: functional
[34] = viability reduction in hepatoma cells – cell-based, ATP luminescence, dry powder, Set4, cytotoxicity control, dose response (AID 743143); assay type: functional; conditions: HepG2
[35] = viability loss in MITF-independent A375 cells – cell-based, CellTiter-Glo luminescence, dry powder, set 6, counter-screen for MITF inhibitor project, dose response (AID 624488); assay type: functional; conditions: A-375
[36] = cytotoxicity in MITF-independent A375 cells – cell-based, CellTiter-Glo luminescence, dry powder, set 4, counter-screen for MITF inhibitor project, dose response (AID 624364); assay type: functional; conditions: A-375;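 also: A375 melanoma cells are MITF independent so this is a counter screen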
[37] = cytotoxicity in melanoma parental cells – cell-based, CellTiter-Glo, dry powder, set 6, MITF inhibitor project, dose response (AID 624429); assay type: functional; conditions: SK-MEL-5
[38] = MITF Orthogonal Assay: SK-MEL-5 CTG Assay Measured in Cell-Based System Using Plate Reader - 2084-02_Inhibitor_Dose_DryPowder_Activity_Set5.; assay type: functional
[39] = MITF Orthogonal Assay: MALME3 CTG Assay Measured in Cell-Based System Using Plate Reader - 2084-04_Inhibitor_Dose_DryPowder_Activity_Set6.; assay type: functional; conditions: MALME-3
[40] = cytotoxicity in MITF-independent A375 cells – cell-based, CellTiter-Glo luminescence, dry powder, set 9, counter-screen for MITF modulator project, dose response (AID 651591); assay type: functional; conditions: A-375
[41] = inhibitors of TRPM1-promoter reporter in SK-MEL-5 – cell-based, luciferase, dry powder, set 9, MITF inhibitor project, dose response (AID 651588); assay type: functional
[42] = growth inhibition of MALME3 cells – cell-based, CellTiter-Glo luminescence, dry powder, set 5, orthogonal assay for MITF inhibitor project, dose response (AID 651584); assay type: functional; conditions: MALME-3
[43] = viability loss in MITF-independent A375 cells – cell-based, CellTiter-Glo luminescence, dry powder, set 7, counter-screen for MITF inhibitor project, dose response (AID 624490); assay type: functional; conditions: A-375
[44] = growth inhibition of SK-MEL-5 melanoma cells – cell-based, CellTiter-Glo luminescence, dry powder, set 8, orthogonal assay for MITF inhibitor project, dose response (AID 651586); assay type: functional
[45] = MITF Measured in Cell-Based System Using Plate Reader - 2084-01_Inhibitor_Dose_DryPowder_Activity_Set7.; assay type: functional
[46] = MITF Measured in Cell-Based System Using Plate Reader - 2084-01_Inhibitor_Dose_DryPowder_Activity_Set6.; assay type: functional
[47] = viability loss in MITF-independent A375 cells – cell-based, CellTiter-Glo luminescence, dry powder, set 2, counter-screen for MITF inhibitor project, dose response (AID 624489); assay type: functional; conditions: A-375;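 also: actives are compounds lowering A375 viability meaning general cytotoxicity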
[48] = cytotoxicity toward HT-29 cells – cell-based, CellTiter-Glo luminescence, IC50, dose response (AID 1117330); assay type: functional
[49] = HCT116 cell viability decrease, GSK3B pretreatment – CellTiter-Glo, IC50, dose response (AID 1117339); assay type: functional; conditions: HCT-116
[50] = tested on: SN12K1; test: cells; assay type: functional; conditions: Homo sapiens
[51] = RKO cell viability reduction, dose response, CellTiter-Glo luminescence (AID 1117322); assay type: functional
[52] = tested on: P388; test: cells; assay type: functional; conditions: Mus musculus
[53] = rise of 2N DNA cells, HeLa – IC50, dose response (AID 1117349); assay type: functional, cell-based
[54] = rise of 4N DNA cells, HeLa – IC50, dose response (AID 1117351); assay type: functional, cell-based
[55] = microbe, parasite or virus in culture; assay type: functional; conditions: Mycobacterium tuberculosis
[56] = tested on: P388/ADR; test: cells; assay type: functional; conditions: Mus musculus
[57] = IC50 of insulin release inhibition, rat insulinoma INS-1E line, 5 mM glucose, cell-based (AID 1117331); assay type: functional

Chain of Paired box protein Pax-8 (Q06710 whole entry): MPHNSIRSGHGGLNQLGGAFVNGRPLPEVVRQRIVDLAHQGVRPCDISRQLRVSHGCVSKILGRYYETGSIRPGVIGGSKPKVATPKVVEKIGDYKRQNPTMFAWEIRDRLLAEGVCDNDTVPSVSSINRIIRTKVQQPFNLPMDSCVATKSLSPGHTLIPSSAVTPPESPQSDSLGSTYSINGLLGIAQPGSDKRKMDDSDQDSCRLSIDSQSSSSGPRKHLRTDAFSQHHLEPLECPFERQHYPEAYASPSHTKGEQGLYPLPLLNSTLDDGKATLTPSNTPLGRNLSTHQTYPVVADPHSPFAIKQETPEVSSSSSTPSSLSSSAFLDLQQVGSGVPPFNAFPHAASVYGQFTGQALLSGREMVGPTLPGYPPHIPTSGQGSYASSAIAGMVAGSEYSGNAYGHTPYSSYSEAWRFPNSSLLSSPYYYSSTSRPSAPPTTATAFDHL
Chain of Vasopressin V2 receptor (P30518 whole entry): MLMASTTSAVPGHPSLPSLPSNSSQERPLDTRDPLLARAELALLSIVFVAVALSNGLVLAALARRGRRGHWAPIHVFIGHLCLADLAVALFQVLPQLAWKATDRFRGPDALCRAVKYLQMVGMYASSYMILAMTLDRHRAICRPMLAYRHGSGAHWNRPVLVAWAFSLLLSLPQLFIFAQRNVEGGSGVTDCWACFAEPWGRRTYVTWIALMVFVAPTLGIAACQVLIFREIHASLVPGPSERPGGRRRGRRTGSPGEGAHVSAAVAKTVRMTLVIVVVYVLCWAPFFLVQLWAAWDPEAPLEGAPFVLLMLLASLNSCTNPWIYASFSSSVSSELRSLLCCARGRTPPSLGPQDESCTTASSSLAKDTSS
Chain of E3 ubiquitin-protein ligase Mdm2 (Q00987 whole entry): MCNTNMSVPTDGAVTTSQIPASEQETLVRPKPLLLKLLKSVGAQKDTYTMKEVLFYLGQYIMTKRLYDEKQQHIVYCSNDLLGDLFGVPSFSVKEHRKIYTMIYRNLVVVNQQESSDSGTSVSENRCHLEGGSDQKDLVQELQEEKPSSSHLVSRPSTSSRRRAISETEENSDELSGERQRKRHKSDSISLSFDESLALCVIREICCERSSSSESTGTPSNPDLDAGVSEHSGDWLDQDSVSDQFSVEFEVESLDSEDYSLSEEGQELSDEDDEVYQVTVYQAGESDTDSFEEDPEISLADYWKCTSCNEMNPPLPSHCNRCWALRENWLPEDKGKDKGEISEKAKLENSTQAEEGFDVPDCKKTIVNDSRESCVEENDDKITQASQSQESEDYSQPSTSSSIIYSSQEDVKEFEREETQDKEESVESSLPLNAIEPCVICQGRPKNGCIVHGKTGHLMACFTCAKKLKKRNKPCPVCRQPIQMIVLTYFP
Chain of NAD-dependent protein deacylase sirtuin-5, mitochondrial (Q9NXA8 whole entry): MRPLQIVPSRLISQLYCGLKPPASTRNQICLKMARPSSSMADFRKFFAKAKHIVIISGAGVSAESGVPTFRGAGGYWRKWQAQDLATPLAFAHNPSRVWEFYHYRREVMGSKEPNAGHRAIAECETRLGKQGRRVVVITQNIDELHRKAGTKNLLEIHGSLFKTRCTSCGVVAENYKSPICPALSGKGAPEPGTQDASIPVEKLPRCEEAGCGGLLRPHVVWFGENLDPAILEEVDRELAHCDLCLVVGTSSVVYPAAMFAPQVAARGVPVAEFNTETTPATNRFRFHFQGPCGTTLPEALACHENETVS
Chain of Vasopressin V1b receptor (P47901 whole entry): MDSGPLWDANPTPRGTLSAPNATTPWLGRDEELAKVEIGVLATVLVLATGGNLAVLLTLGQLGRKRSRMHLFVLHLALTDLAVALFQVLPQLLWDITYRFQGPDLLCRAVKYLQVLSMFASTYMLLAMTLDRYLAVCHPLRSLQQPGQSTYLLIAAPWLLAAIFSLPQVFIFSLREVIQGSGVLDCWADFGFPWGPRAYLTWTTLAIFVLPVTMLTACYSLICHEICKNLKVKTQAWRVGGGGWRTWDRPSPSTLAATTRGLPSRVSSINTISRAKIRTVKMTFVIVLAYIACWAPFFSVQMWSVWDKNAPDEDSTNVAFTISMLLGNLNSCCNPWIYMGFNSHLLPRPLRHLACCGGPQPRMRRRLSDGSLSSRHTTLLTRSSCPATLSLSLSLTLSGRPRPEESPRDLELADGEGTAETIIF

CC(=O)/C=C/n1c(=S)oc2ccccc21
0.01 µM (not active): EC50 [3]
active: AC50 [2] 8.12 µM | AC50 [5] 5.95 µM | AC50 [6] 10 µM
inconclusive: EC50 [1] 0.508 µM | EC50 [4] 3.97 µM

CC(=O)CSc1nnc(-c2ccco2)n1-c1ccccc1
inactive: AC50 [7] > 30 µM

CN(C[C@H]1N[C@@H](CO)[C@@H]1c1ccc(C2=CCCC2)cc1)C(=O)c1ccncc1
active: AC50 [9] 21.1 µM | AC50 [10] 16.3 µM | AC50 [11] 16.2 µM | AC50 [12] 17.5 µM | AC50 [13] 47.5 µM | AC50 [14] 10.9 µM | AC50 [15] 19.3 µM | AC50 [5] 6.17 µM | AC50 [16] 16.2 µM
inactive: AC50 [8] > 32 µM

O=C(C1CC1)N1C[C@@H]2N[C@H](C1)[C@@H]2c1ccc(-c2ccccc2F)cc1
active: AC50 [17] 2.57 µM | AC50 [18] 4.58 µM | AC50 [19] 3.24 µM | AC50 [20] 0.139 µM | AC50 [21] 1.84 µM | AC50 [22] 0.225 µM | AC50 [23] 0.83 µM | AC50 [24] 0.145 µM | AC50 [12] 2.72 µM | AC50 [25] 0.584 µM | AC50 [26] 2.25 µM | AC50 [27] 4.12 µM | AC50 [28] 5.34 µM | AC50 [29] 32.3 µM | AC50 [14] 5.96 µM | AC50 [5] 1.2 µM | AC50 [16] 4.13 µM

COc1ccc(N(CC2CC2)C(=O)N2CCN(c3ncc(Cl)cc3Cl)CC2)cc1
active: IC50 [30] 2.78 µM | IC50 [31] 0.1 µM | IC50 [32] 3.1 µM | IC50 [33] 0.0166 µM

O=C(CNC(=O)c1ccc(Cl)c(Cl)c1)N[C@@H]1CCCc2ccccc21
inactive: AC50 [34] > 52 µM

NC1=C(NC(=O)c2ccccc2)C(=O)c2ccccc2C1=O
active: AC50 [35] 60.3 µM | AC50 [37] 9.56 µM | AC50 [38] 6.7 µM | AC50 [39] 14.3 µM | AC50 [41] 18.6 µM | AC50 [42] 14.3 µM | AC50 [44] 10.1 µM | AC50 [45] 7.02 µM | AC50 [46] 4.07 µM | AC50 [47] 59.8 µM
inactive: AC50 [36] > 70 µM | AC50 [40] > 70 µM | AC50 [43] > 70 µM

CO[C@@]12[C@H](COC(N)=O)C3=C(C(=O)C(C)=C(N)C3=O)N1C[C@@H]1N[C@@H]12 [MITOMYCIN]
inactive: IC50 [49] > 20 µM | IC50 [54] > 10 µM | GI50 [56] 1.39 µM
active: IC50 [48] 2.57 µM | GI50 [50] 0.959 µM | IC50 [51] 0.995 µM | GI50 [52] 0.181 µM | IC50 [53] 0.0133 µM | CC50 [55] > 40 µM

COCCCOc1ccnc(C[S+]([O-])c2nc3ccccc3[nH]2)c1C (configuration not stated) [RABEPRAZOLE SODIUM]
inactive: IC50 [57] > 33.3 µM
